{"source": "patent US20040040097A1", "about": "“Coloring composition for keratin fibres comprising a system limiting the transcutaneous passage of an oxidation dye” (L'OREAL, priority 2002, published 2004)", "tested_on": "rebuilt skin (for example Epiderm, Episkin or Skinethic)", "experiment": "Penetration rate of 5,6-dihydroxyindole through rebuilt skin in static diffusion cells, VIS spectrophotometry of oxidation products", "format": "in vitro ADME", "conditions": "5 mM final concentration, 16 hour coating at an infinite dose", "protocol": "The 5,6-dihydroxyindole mixture with the system limiting the transcutaneous passage has been prepared fresh by adding an system equivalent volume (=1 mM MnCl2 in 1 M NaHCO3; pH=10) to an aqueous solution of 10 mM 5,6-dihydroxyindole. Then, it has been coated on rebuilt skin (for example Epiderm® from Mattek, Inc., Episkin® from Episkin SNC or Skinethic® from Skinethic Laboratories) placed in diffusion cells in a static diffusion mode at a dose of 250 mg·cm^2 for 16 hours. The analysis of the penetration rates of 5,6-dihydroxyindole through the skin has been conducted through VIS spectrophotometry through the oxidation products thereof. The 5,6-dihydroxyindole range has been prepared as follows. A plurality of dilutions from 0 to 0.5 mM 5,6-dihydroxindole in receiving liquid has been left for 16 hours at 32° C. for forming oxidation products in the form of a pigment. Such pigments absorb visible light (VIS) (“scattering” effect) depending on their concentration, which is directly related to the initial 5,6-dihydroxyindole concentration. Thus, the 5,6-dihydroxyindol range has been obtained through VIS absorption of such pigments formed after 5,6-dihydroxyindole oxydation. A 1:1 mixture between 10 mM 5,6-dihydroxyindole and distilled water has been used as a control. […]", "data": [{"smiles": "Oc1cc2cc[nH]c2cc1O", "note": "[5,6-dihydroxyindole]", "values": [{"measurement": "penetration rate of the 5,6-dihydroxyindole", "setting": "with no system (control mixture, 1:1 with distilled water)", "result": "approximately 3 % of the dose coated"}, {"measurement": "penetration rate of the 5,6-dihydroxyindole", "setting": "with the system (1 mM MnCl2 in 1 M NaHCO3, pH 10, equivalent volume)", "result": "lower than 0.5%"}]}]}
